Structures are written as SMILES. Counter-ions that a name gives are not always drawn.

The subject of the first assay is Acinetobacter baumannii ATCC17961. Kind of assay: Antimicrobial susceptibility testing: 90% growth inhibitory concentration (IC90) determination in Iso-Sensitest broth, OD600 growth. The format is cell-based. Conditions: Acinetobacter baumannii, ATCC17961, 16 h, read-out: A. baumannii ATCC 17961 IC90 (uM), strain ATCC 17961, OD600 growth over 16 h. The method in brief: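 Each strain, at about 5×10^(5) CFU/ml, was incubated with twofold dilutions of compound at 35±2° C for 16 h, and IC90 was calculated from kinetic optical density measured at 600 nm during logarithmic growth.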
On to `N#CCn1cc(-c2cnc3c(Nc4ccc(C(=O)N5CCN(CC(=O)NCCCN)CC5)c(Cl)c4)nccn23)c(C(F)(F)F)n1` [Example 603, N-(3-aminopropyl)-2-(4-(2-chloro-4-((3-(1-(cyanomethyl)-3-(trifluoromethyl)-1H-pyrazol-4-yl)imidazo[1,2-a]pyrazin-8-yl)amino)benzoyl)piperazin-1-yl)acetamide formate], for which the IC90 is 0.384 µM.

Consider `CCc1cc(Nc2nccn3c(-c4cn(C5CCC5)nc4C(F)(F)F)cnc23)ccc1C(=O)NCC1CC1N` (stereo not drawn) [Example 671, N-((2-aminocyclopropyl)methyl)-4-((3-(1-cyclobutyl-3-(trifluoromethyl)-1H-pyrazol-4-yl)imidazo[1,2-a]pyrazin-8-yl)amino)-2-ethylbenzamide formate], for which the IC90 came out at 0.309 µM.

For `Cc1cc(Nc2nccn3c(-c4cn(C)nc4C(F)(F)F)cnc23)ccc1C(=O)N1CCN(C(=O)[C@H]2CCNC[C@@H]2O)CC1` [Example 478, formic acid; [4-[(3R,4S)-3-hydroxypiperidine-4-carbonyl]piperazin-1-yl]-[2-methyl-4-[[3-[1-methyl-3-(trifluoromethyl)pyrazol-4-yl]imidazo[1,2-a]pyrazin-8-yl]amino]phenyl]methanone], the IC90 is 3.46 µM.

Consider `CCc1cc(Nc2nccn3c(-c4cn(CC(F)F)nc4C(F)(F)F)cnc23)ccc1C(=O)NCC(=O)N1CCCC1CN` (stereo not drawn) [Example 528, N-[2-[2-(aminomethyl)pyrrolidin-1-yl]-2-oxo-ethyl]-4-[[3-[1-(2,2-difluoroethyl)-3-(trifluoromethyl)pyrazol-4-yl]imidazo[1,2-a]pyrazin-8-yl]amino]-2-ethyl-benzamide formate], for which the IC90 turned out to be 0.243 µM.

For `Cc1cc(Nc2nccn3c(-c4c[nH]nc4C(F)(F)F)cnc23)ccc1C(=O)N1CCN(C(=O)[C@@H]2CCNC[C@@H]2O)CC1` [Example 461, formic acid; [4-[(3R,4R)-3-hydroxypiperidine-4-carbonyl]piperazin-1-yl]-[2-methyl-4-[[3-[3-(trifluoromethyl)-1H-pyrazol-4-yl]imidazo[1,2-a]pyrazin-8-yl]amino]phenyl]methanone], the IC90 stood at 0.926 µM.

With `CCc1cc(Nc2nccn3c(-c4c[nH]nc4C(F)(F)F)cnc23)ccc1C(=O)NCCNC(=O)[C@@H]1C[C@@H](O)CN1` [Example 432, (2S,4R)-N-[2-[[2-ethyl-4-[[3-[3-(trifluoromethyl)-1H-pyrazol-4-yl]imidazo[1,2-a]pyrazin-8-yl]amino]benzoyl]amino]ethyl]-4-hydroxypyrrolidine-2-carboxamide formate], the concentration for an effect of 90% (IC90) worked out at 0.751 µM.

As for `CCc1cc(Nc2nccn3c(-c4c[nH]nc4C(F)(F)F)cnc23)ccc1C(=O)NCCNC(=O)[C@@H]1CC[C@@H](N)C1` [Example 586, N-[2-[[(1R,3R)-3-aminocyclo-pentanecarbonyl]amino]ethyl]-2-ethyl-4-[[3-[3-(trifluoromethyl)-1H-pyrazol-4-yl]imidazo[1,2-a]pyrazin-8-yl]amino]benzamide formate], the IC90 stood at 0.434 µM.

The assay is the same for the next values; noted with them: Acinetobacter baumannii, ATCC17961, 16 h, strain ATCC 17961, OD600 growth over 16 h, read-out: A. baumannii ATCC 17961 IC90.
Turning to `CCc1cc(Nc2nccn3c(-c4cn(CC(F)F)nc4C(F)(F)F)cnc23)ccc1C(=O)NCC(=O)N1CC(N)C1` [Example 733, N-[2-(3-aminoazetidin-1-yl)-2-oxo-ethyl]-4-[[3-[1-(2,2-difluoroethyl)-3-(trifluoromethyl)pyrazol-4-yl]imidazo[1,2-a]pyrazin-8-yl]amino]-2-ethyl-benzamide], the 90% effect concentration (IC90) is 0.481 µM.

On to `C#CCn1cc(-c2cnc3c(Nc4ccc(C(=O)NCCOCCN)c(Cl)c4)nccn23)c(C(F)(F)F)n1` [Example 249, N-[2-(2-aminoethoxy)ethyl]-2-chloro-4-[[3-[1-prop-2-ynyl-3-(trifluoromethyl)pyrazol-4-yl]imidazo[1,2-a]pyrazin-8-yl]amino]benzamide], for which the IC90 came out at 0.047 µM.

Take `C#CCn1cc(-c2cnc3c(Nc4ccc(C(=O)NC)c(Cl)c4)nccn23)c(C(F)(F)F)n1` [Example 351, 2-chloro-N-methyl-4-[[3-[1-prop-2-ynyl-3-(trifluoromethyl)pyrazol-4-yl]imidazo[1,2-a]pyrazin-8-yl]amino]benzamide]: the 90% effect concentration (IC90) came out at 0.099 µM.

As for `O=C(NC1CCN(C(=O)c2ccc(Nc3nccn4c(-c5c[nH]nc5C(F)(F)F)cnc34)cc2Cl)CC1)C1CCNCC1` [Example 157, N-[1-[2-chloro-4-[[3-[3-(trifluoromethyl)-1H-pyrazol-4-yl]imidazo[1,2-a]pyrazin-8-yl]amino]benzoyl]piperidin-4-yl]piperidine-4-carboxamide], the concentration for an effect of 90% (IC90) stood at 0.969 µM.

Take `CCc1cc(Nc2nccn3c(-c4cn(CC#N)nc4C(F)(F)F)cnc23)ccc1C(=O)NCCCCCN` [Example 329, N-(5-aminopentyl)-4-[[3-[1-(cyanomethyl)-3-(trifluoromethyl)pyrazol-4-yl]imidazo[1,2-a]pyrazin-8-yl]amino]-2-ethylbenzamide]: the IC90 came to 0.211 µM.

With `N[C@@H]1CC[C@H](C(=O)N2CCN(C(=O)c3ccc(Nc4nccn5c(-c6cn(CC7CC7)nc6C(F)(F)F)cnc45)cc3F)CC2)C1` [Example 808, (4-((1S,3R)-3-aminocyclo-pentane-1-carbonyl)piperazin-1-yl)(4-((3-(1-(cyclopropyl-methyl)-3-(trifluoromethyl)-1H-pyrazol-4-yl)imidazo[1,2-a]pyrazin-8-yl)amino)-2-fluorophenyl) methanone hydrochloride], the IC90 amounted to 0.26 µM.

For `O=C(c1ccc(Nc2nccn3c(-c4c[nH]nc4C(F)(F)F)cnc23)cc1Cl)N1CCN(C(=O)[C@@H]2CCCN2)CC1` [Example 209, [2-chloro-4-[[3-[3-(trifluoromethyl)-1H-pyrazol-4-yl]imidazo[1,2-a]pyrazin-8-yl]amino]phenyl]-[4-[(2S)-pyrrolidine-2-carbonyl]piperazin-1-yl]methanone], the concentration for an effect of 90% (IC90) was 0.105 µM.

Consider `CCc1cc(Nc2nccn3c(-c4cn(CC#N)nc4C(F)(F)F)cnc23)ccc1C(=O)NCC(=O)N1CCNCC1` [Example 499, 4-[[3-[1-(cyanomethyl)-3-(trifluoromethyl)pyrazol-4-yl]imidazo[1,2-a]pyrazin-8-yl]amino]-2-ethyl-N-(2-oxo-2-piperazin-1-yl-ethyl)benzamide formate], for which the IC90 is 0.218 µM.

`C#CCn1cc(-c2cnc3c(Nc4ccc(C(=O)N5CCN(C(=O)C6(O)CCNCC6)CC5)c(CC)c4)nccn23)c(C(F)F)n1` [Example 755, (4-(4-((3-(3-(difluoromethyl)-1-(prop-2-yn-1-yl)-1H-pyrazol-4-yl)imidazo[1,2-a]pyrazin-8-yl)amino)-2-ethylbenzoyl)piperazin-1-yl)(4-hydroxypiperidin-4-yl) methanone]: the 90% effect concentration (IC90) was 0.678 µM.

Regarding `NC1CCN(C(=O)c2ccc(Nc3nccn4c(-c5c[nH]nc5C(F)(F)F)cnc34)cc2Cl)CC1` [Example 318, (4-aminopiperidin-1-yl)-[2-chloro-4-[[3-[3-(trifluoromethyl)-1H-pyrazol-4-yl]imidazo[1,2-a]pyrazin-8-yl]amino]phenyl]methanone], the concentration for an effect of 90% (IC90) was found to be 0.411 µM.

Consider `CCc1cc(Nc2nccn3c(-c4cn(CC#N)nc4C(F)(F)F)cnc23)ccc1C(=O)NCCCCCCN` [Example 227, N-(6-aminohexyl)-4-[[3-[1-(cyanomethyl)-3-(trifluoromethyl)pyrazol-4-yl]imidazo[1,2-a]pyrazin-8-yl]amino]-2-ethylbenzamide], for which the concentration for an effect of 90% (IC90) stood at 0.17 µM.

For the compound `CCc1cc(Nc2nccn3c(-c4c[nH]nc4C(F)(F)F)cnc23)ccc1C(=O)NCCOCCN1CCOCC1` [Example 772, 2-ethyl-N-(2-(2-morpholinoethoxy)ethyl)-4-((3-(3-(trifluoromethyl)-1H-pyrazol-4-yl)imidazo[1,2-a]pyrazin-8-yl)amino)benzamide], the IC90 was 0.968 µM.

`CCc1cc(Nc2nccn3c(-c4cn(CCF)nc4C(F)(F)F)cnc23)ccc1C(=O)NCCOCC(C)(C)N` [Example 54, N-[2-(2-amino-2-methylpropoxy)ethyl]-2-ethyl-4-[[3-[1-(2-fluoroethyl)-3-(trifluoromethyl)pyrazol-4-yl]imidazo[1,2-a]pyrazin-8-yl]amino]benzamide]: the IC90 is 0.162 µM.

`N[C@@H]1CCN(C(=O)c2ccc(Nc3nccn4c(-c5c[nH]nc5C(F)(F)F)cnc34)cc2Cl)C1` [Example 324, [(3R)-3-aminopyrrolidin-1-yl]-[2-chloro-4-[[3-[3-(trifluoromethyl)-1H-pyrazol-4-yl]imidazo[1,2-a]pyrazin-8-yl]amino]phenyl]methanone]: the IC90 turned out to be 1.23 µM.

With `CCc1cc(Nc2nccn3c(-c4cn(CC(F)F)nc4C(F)(F)F)cnc23)ccc1C(=O)NCCCNC(=O)N1CC[C@@H](N)C1` [Example 632, (R)-3-amino-N-(3-(4-((3-(1-(2,2-difluoroethyl)-3-(trifluoromethyl)-1H-pyrazol-4-yl)imidazo[1,2-a]pyrazin-8-yl)amino)-2-ethylbenzamido)propyl) pyrrolidine-1-carboxamide formate], the IC90 turned out to be 0.209 µM.

As to `CCc1cc(Nc2nccn3c(-c4cn(CC(F)F)nc4C(F)(F)F)cnc23)ccc1C(=O)NCC(=O)N1CCNCC1` [Example 679, 4-[[3-[1-(2,2-difluoroethyl)-3-(trifluoromethyl)pyrazol-4-yl]imidazo[1,2-a]pyrazin-8-yl]amino]-2-ethyl-N-(2-oxo-2-piperazin-1-yl-ethyl) benzamide formate], the IC90 was determined as 0.322 µM.

Still in this assay, the particulars now being: strain ATCC 17961, OD600 growth over 16 h, read-out: A. baumannii ATCC 17961 IC90.
For the compound `C#CCNC(=O)c1c(C)cc(Nc2nccn3c(-c4cn(CC#C)nc4C(F)(F)F)cnc23)cc1F` [Example 40, 2-fluoro-6-methyl-N-prop-2-ynyl-4-[[3-[1-prop-2-ynyl-3-(trifluoromethyl)pyrazol-4-yl]imidazo[1,2-a]pyrazin-8-yl]amino] benzamide], the IC90 came out at 0.196 µM.

The term IC90 denotes the concentration at which the effect reaches the 90% level.

The record behind these values is patent publication US20230203043A1, “NOVEL IMIDAZOPYRAZINE DERIVATIVES” (Hoffmann-La Roche Inc., priority 2020, published 2023).
